The values below come from patent publication US12234245B2, “Sulfonimidamide compounds as inhibitors of interleukin-1 activity” (Genentech, Inc., priority 2018, dated 2025).

The target in this assay is NLRP3 inflammasome (Homo sapiens, UniProt Q96P20). The assay can be described thus: THP-1 ASC-GFP speck assay. In kind it is cell-based. On the set-up: host or cells: THP-1 ASC-GFP cells, PMA-differentiated, LPS-primed, nigericin-stimulated. To be noted: THP-1 ASC-GFP cells, PMA differentiated, LPS primed, 10 μM nigericin; read-out: THP1 ASC Speck IC50. As to the method:
THP-1 ASC-GFP cell line was purchased from Invivogen, San Diego, for inflammasome activation assay. THP-1 ASC-GFP cells stably express a 37.6 kDa ASC::GFP fusion protein that enables monitoring of spec formation by microscopy after activation of NLRP3 dependent inflammasome pathway. Cells were maintained at a density of 600,000 cells/mL in growth media consisting of RPMI 1640, 2 mM L-glutamine, 25 mM HEPES and 10% heat inactivated fetal bovine serum at 37° C. and 5% CO2. Cells were passaged every 3-4 days and used for assays for up to 20 passages.
THP-1 ASC-GFP cells were collected by centrifuging cells at 800 RPM for 5 minutes. Cell culture supernatant was removed and cells were re-suspended in fresh media at density of 1×10^6 cells/mL in assay media consisting of RPMI 1640, 2 mM L-glutamine, 25 mM HEPES and 10% heat inactivated fetal bovine serum. Phorbol 12-myristate 13-acetate (PMA) (Invivogen, tlrl-pma) was added to the cell suspension at a final concentration of 500 ng/ml and mixed thoroughly. 40,000 cells were added per well of a 384 well plate and differentiated into macrophages overnight at 37° C. and 5% CO2. Cells were primed with 1 μg/mL of lipopolysaccharide (Invivogen Ultrapure lipopolysaccharide from E. coli, tlrl-3pelps) in assay media for 3 hours at 37° C. and 5% CO2. After priming, media was removed and THP-1 ASC-GFP cells were preincubated with serially diluted test compounds with starting concentration of 40 μM followed by 2-fold dilution for a 20-point curve or vehicle (DMSO) for 30 min in assay media at 37° C. and 5% CO2. Cells were then stimulated with 10 μM nigericin (Invivogen, tlrl-nig-5) for 90 min at 37° C. and 5% CO2 to activate NLRP3 dependent inflammasome pathway and spec formation. After stimulation, cells were fixed with 4.8% paraformaldehyde (Electron Microscopy Sciences #15710-S) and incubated at room temperature for 15 min. Cells were then washed 3-times with 100 μL of phosphate buffered saline and permeabilized in the presence of premeablization/block buffer for 20 min at room temperature. Cells were then washed 3-times with 100 μL phosphate buffered saline and incubated for 1 hr at room temperature in the presence of hoechst. After staining with Hoechst, cells were washed 3-times with 100 μL phosphate buffered saline and imaged for ASC spec formation.
THP-1 ASC-GFP cells were imaged in 488 and Hoechst channels. Hoechst channel was used for cell count and 488 channel was used to identify number of GFP ASC specks in imaged fields. Percentage of cells with a spec was calculated by dividing the number of GFP positive spots by total number of cells.

NLRP3 inflammasome, sequence (Q96P20 whole entry, the tested form may be a part): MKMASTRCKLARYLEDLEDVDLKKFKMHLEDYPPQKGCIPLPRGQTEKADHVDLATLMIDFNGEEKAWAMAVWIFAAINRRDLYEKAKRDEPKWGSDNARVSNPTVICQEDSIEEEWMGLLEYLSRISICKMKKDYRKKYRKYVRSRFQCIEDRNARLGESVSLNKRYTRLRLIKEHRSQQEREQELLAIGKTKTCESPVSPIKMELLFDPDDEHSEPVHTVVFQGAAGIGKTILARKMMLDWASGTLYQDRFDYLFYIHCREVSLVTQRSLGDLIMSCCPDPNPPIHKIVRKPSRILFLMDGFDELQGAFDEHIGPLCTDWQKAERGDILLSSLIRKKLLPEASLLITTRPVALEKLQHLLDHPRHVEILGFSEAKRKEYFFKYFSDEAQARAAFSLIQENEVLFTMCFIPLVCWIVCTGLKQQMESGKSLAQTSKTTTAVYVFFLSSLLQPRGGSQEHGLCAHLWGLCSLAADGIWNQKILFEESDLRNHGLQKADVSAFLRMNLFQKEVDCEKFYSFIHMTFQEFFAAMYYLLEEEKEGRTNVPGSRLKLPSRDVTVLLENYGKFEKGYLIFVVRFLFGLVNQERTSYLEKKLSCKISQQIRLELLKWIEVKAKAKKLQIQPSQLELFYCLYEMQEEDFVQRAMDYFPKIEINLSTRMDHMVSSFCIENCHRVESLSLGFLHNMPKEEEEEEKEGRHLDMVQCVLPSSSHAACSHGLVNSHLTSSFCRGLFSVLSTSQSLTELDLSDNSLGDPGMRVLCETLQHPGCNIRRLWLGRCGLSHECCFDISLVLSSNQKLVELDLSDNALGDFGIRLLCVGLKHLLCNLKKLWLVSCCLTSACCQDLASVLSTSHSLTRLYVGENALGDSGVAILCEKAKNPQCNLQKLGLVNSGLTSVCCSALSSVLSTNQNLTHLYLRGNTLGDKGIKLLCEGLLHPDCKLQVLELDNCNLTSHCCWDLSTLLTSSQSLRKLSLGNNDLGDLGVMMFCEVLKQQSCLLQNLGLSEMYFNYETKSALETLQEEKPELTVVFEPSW

As to `COC1COc2c(S(N)(=O)=NC(=O)Nc3c4c(cc5c3C(C)CC5)CCC4)cnn2C1` (single isomer, unassigned) [Example 147], the IC50 was greater than 20000 nM. As for `CC1(C)COc2c(S(N)(=O)=NC(=O)Nc3c4c(cc5c3CC(F)C5)CCC4)cnn2C1` (single isomer, unassigned) [Example 155], the figure is 8 nM; as for `CNC1CCn2ncc(S(N)(=O)=NC(=O)Nc3c4c(cc5c3CCC5)CCC4)c2OC1` (single isomer, unassigned) [Example 130], 14000 nM; as for `NS(=O)(=NC(=O)Nc1c2c(cc3c1CCC3)CCC2)c1cnn2c1CCOCC2` (single isomer, unassigned) [Example 118], greater than 20000 nM. Turning to `CC1(C)Cn2ncc(S(N)(=O)=NC(=O)Nc3c4c(cc5c3CCC5)CCC4)c2O1` (single isomer, unassigned) [Example 139], the IC50 came to 4.3 nM.

As for `COC1CCn2ncc(S(N)(=O)=NC(=O)Nc3c4c(cc5c3CCC5)CCC4)c2OC1` (single isomer, unassigned) [Example 86], the IC50 was greater than 20000 nM. As to `CNC1CCOc2c(S(N)(=O)=NC(=O)Nc3c4c(cc5c3CCC5)CCC4)cnn2C1` (single isomer, unassigned) [Example 109], the IC50 was 5700 nM.

Take `COc1cc(-c2cc(F)cc(C(C)C)c2NC(=O)N=S(N)(=O)c2cnn3c2OCCC3)ccn1` (single isomer, unassigned) [Example 119]: the IC50 is 58 nM. As for `COc1cc(-c2ccc3c(c2NC(=O)N=S(N)(=O)c2cnn4c2OCCC4)CCO3)ccn1` (single isomer, unassigned) [Example 158], the IC50 stood at 25 nM. In the case of `CC1CCn2ncc(S(N)(=O)=NC(=O)Nc3c4c(cc5c3CCC5)CCC4)c2OC1` (single isomer, unassigned) [Example 78], the IC50 amounted to 93 nM. As for `CC1CCc2cc3c(c(NC(=O)N=S(N)(=O)c4cnn5c4OCC5)c21)CCC3` (single isomer, unassigned) [Example 145], the IC50 came out at 3800 nM. Then `CC1CCOc2c(S(N)(=O)=NC(=O)Nc3c4c(cc5c3CCC5)CCC4)cnn2C1` (single isomer, unassigned) [Example 65], with 340 nM; and `CN(C)[C@@H]1COc2c([S@@](=O)(=NC(=O)Nc3c4c(c(F)c5c3CCC5)CCC4)NC#N)cnn2C1` [Example 104, (R,6S)—N-cyano-6-(dimethylamino)-N′-((8-fluoro-1,2,3,5,6,7-hexahydro-s-indacen-4-yl)carbamoyl)-6,7-dihydro-5H-pyrazolo[5,1-b][1,3]oxazine-3-sulfonimidamide], with 320 nM; and `COc1cc(C(C)C)c(NC(=O)N=S(N)(=O)c2cnn3c2OCC(C)(C)C3)c(C(C)C)n1` (single isomer, unassigned) [Example 77], with greater than 20000 nM. As for `COC1CCn2ncc(S(N)(=O)=NC(=O)Nc3c4c(cc5c3CCC5)CCC4)c2OC1` (single isomer, unassigned) [Example 93], the IC50 was found to be 360 nM.

Consider `COC1CCn2ncc(S(N)(=O)=NC(=O)Nc3c4c(cc5c3CCC5)CCC4)c2OC1` (single isomer, unassigned) [Example 92], for which the IC50 was determined as 8200 nM. On to `CC1(C)Cn2ncc(S(N)(=O)=NC(=O)Nc3c4c(cc5c3CCC5)CCC4)c2O1` (single isomer, unassigned) [Example 140], for which the IC50 was 560 nM.

Consider `COC1COc2c(S(N)(=O)=NC(=O)Nc3c4c(cc5c3C(C)CC5)CCC4)cnn2C1` (single isomer, unassigned) [Example 148], for which the IC50 was 710 nM.

On to `CNC1CCOc2c(S(N)(=O)=NC(=O)Nc3c4c(cc5c3CCC5)CCC4)cnn2C1` (single isomer, unassigned) [Example 110], for which the IC50 was found to be 120 nM.

With `CCn1nc(C(C)C)c(NC(=O)N=S(N)(=O)c2cnn3c2OCCC3)c1C(C)C` (single isomer, unassigned) [Example 99], the IC50 amounted to 1700 nM. Then `NS(=O)(=NC(=O)Nc1c2c(cc3c1CCC3)CCC2)c1cnn2c1SCCC2` (single isomer, unassigned) [Example 101], with greater than 20000 nM. Turning to `CC1CCn2ncc(S(N)(=O)=NC(=O)Nc3c4c(cc5c3CCC5)CCC4)c2OC1` (single isomer, unassigned) [Example 79], the IC50 was found to be 1000 nM. Then `COc1cc(-c2ccc(NC(=O)N=S(N)(=O)c3cnn4c3OCC(OC)C4)c3c2CCC3)ccn1` (single isomer, unassigned) [Example 151], with greater than 20000 nM; and `NS(=O)(=NC(=O)Nc1c2c(cc3c1CCC3)CCC2)c1cnn2c1SCCC2` (single isomer, unassigned) [Example 100], with 2700 nM; and `NS(=O)(=NC(=O)Nc1c2c(cc3c1CCC3)CCC2)c1cnn2c1C(F)(F)CCC2` (single isomer, unassigned) [Example 134], with greater than 20000 nM. In the case of `COc1cc(-c2cc(F)cc(C(C)C)c2NC(=O)N=S(N)(=O)c2cnn3c2OCCC3)ccn1` (single isomer, unassigned) [Example 120], the IC50 turned out to be 1200 nM. Regarding `CO[C@@H]1CCOc2c([S@@](=O)(=NC(=O)Nc3c4c(cc5c3CCC5)CCC4)NC#N)cnn2C1` (single isomer, unassigned) [Example 122], the IC50 worked out at 800 nM.

For `COc1cc(C(C)C)c(NC(=O)N=S(N)(=O)c2cnn3c2OCC(C)(C)C3)c(C(C)C)n1` (single isomer, unassigned) [Example 76], the IC50 was 2600 nM.

On to `CC1CCc2cc3c(c(NC(=O)N=S(N)(=O)c4cnn5c4OCC(C)(C)C5)c21)CCC3` (single isomer, unassigned) [Example 135], for which the IC50 is greater than 20000 nM.

In the case of `CC1(C)COc2c(S(N)(=O)=NC(=O)Nc3c4c(cc5c3CC(F)C5)CCC4)cnn2C1` (single isomer, unassigned) [Example 156], the IC50 was determined as 13 nM. As for `NS(=O)(=NC(=O)Nc1c2c(cc3c1CCC3)CCC2)c1cnn2c1OCC2` (single isomer, unassigned) [Example 124], the figure is 54 nM; as for `CN(C)[C@@H]1COc2c([S@](=O)(=NC(=O)Nc3c4c(c(F)c5c3CCC5)CCC4)NC#N)cnn2C1` (single isomer, unassigned) [Example 111], 100 nM; as for `CNC1COc2c(S(N)(=O)=NC(=O)Nc3c4c(c(F)c5c3CCC5)CCC4)cnn2C1` (single isomer, unassigned) [Example 83], 8 nM.

In the case of `CC1(C)COc2c(S(N)(=O)=NC(=O)Nc3c4c(cc5c3CCC5)CCC4)cnn2C1` (single isomer, unassigned) [Example 81], the IC50 is 20 nM. As for `COC1CCOc2c(S(N)(=O)=NC(=O)Nc3c4c(cc5c3CCC5)CCC4)cnn2C1` (single isomer, unassigned) [Example 88], the IC50 is 7700 nM. Consider `CO[C@H]1CCOc2c([S@](=O)(=NC(=O)Nc3c4c(cc5c3CCC5)CCC4)NC#N)cnn2C1` (single isomer, unassigned) [Example 123], for which the IC50 worked out at 120 nM. On to `CNCc1cc(C(C)C)c(NC(=O)N=S(N)(=O)c2cnn3c2OCCC3)c(C(C)C)n1` (single isomer, unassigned) [Example 84], for which the IC50 was greater than 20000 nM. Then `NS(=O)(=NC(=O)Nc1c2c(cc3c1CCC3)CCC2)c1cnn2c1COCCC2` (single isomer, unassigned) [Example 61], with greater than 20000 nM; and `COc1cc(C(C)C)c(NC(=O)N=S(N)(=O)c2cnn3c2OCCC3)c(C(C)C)n1` (single isomer, unassigned) [Example 103], with greater than 20000 nM; and `NS(=O)(=NC(=O)Nc1c2c(cc3c1CCC3)CCC2)c1cnn2c1CCOCC2` (single isomer, unassigned) [Example 117], with 4300 nM. As for `CC1(C)COc2c(S(=O)(=NC(=O)Nc3c4c(cc5c3CCC5)CCC4)NC#N)cnn2C1` (racemic) [Example 94, N-cyano-N′-((1,2,3,5,6,7-hexahydro-s-indacen-4-yl)carbamoyl)-6,6-dimethyl-6,7-dihydro-5H-pyrazolo[5,1-b][1,3]oxazine-3-sulfonimidamide], the figure is 360 nM.

As for `CC(C)c1nn(CC2CC2)c(C(C)C)c1NC(=O)N=S(N)(=O)c1cnn2c1OCCC2` (single isomer, unassigned) [Example 114], the IC50 came out at 4400 nM. As for `COC1CCOc2c(S(N)(=O)=NC(=O)Nc3c4c(cc5c3CCC5)CCC4)cnn2C1` (single isomer, unassigned) [Example 89], the IC50 was greater than 20000 nM.
